Converted amounts (≈) assume the structure as drawn.
Species on record: Bos taurus
Assay: Inhibition of bovine brain tubulin assembly assessed as drug level causing decrease in tubulin depolymerization rate
Settings: not given

Point of comparison: `CC(=O)O[C@H]1C(=O)[C@@]2(C)[C@H]([C@H](OC(=O)c3ccccc3)[C@]3(O)C[C@H](OC(=O)[C@H](O)[C@@H](NC(=O)c4ccccc4)c4ccccc4)C(C)=C1C3(C)C)[C@]1(OC(C)=O)CO[C@@H]1C[C@@H]2O`, ID50 100 nM. Against it:
- CC(=O)O[C@H]1C(=O)[C@]2(C)[C@@H](OC(=O)c3ccccc3)C[C@H]3OC[C@@]3(OC(C)=O)[C@H]2[C@H](OC(=O)c2ccccc2)[C@]2(O)C[C@H](OC(=O)[C@H](O)[C@@H](NC(=O)c3ccccc3)c3ccccc3)C(C)=C1C2(C)C — 1.7-fold higher, 170 nM
- CC(=O)O[C@H]1C(=O)[C@]2(C)[C@@H](OC(=O)c3ccc(C4(C(F)(F)F)N=N4)cc3)C[C@H]3OC[C@@]3(OC(C)=O)[C@H]2[C@H](OC(=O)c2ccccc2)[C@]2(O)C[C@H](OC(=O)[C@H](O)[C@@H](NC(=O)c3ccccc3)c3ccccc3)C(C)=C1C2(C)C — 3.4-fold higher, 340 nM

These molecules were tested on J774.2 (assay: Cytotoxicity against mouse J774.2 cells). Settings: not given.
Assay type: functional

In the case of `CC(=O)O[C@H]1C(=O)[C@]2(C)[C@@H](OC(C)=O)C[C@H]3OC[C@@]3(OC(C)=O)[C@H]2[C@H](OC(=O)c2ccccc2)[C@]2(O)C[C@H](OC(=O)[C@H](O)[C@@H](NC(=O)c3ccccc3)c3ccccc3)C(C)=C1C2(C)C` [PACLITAXEL C7 ACETYLCARBOXYLIC ACID ESTER], the ED50 is reported as 9 ×10⁻⁸ M.

Work on `CC(=O)O[C@H]1C(=O)[C@@]2(C)[C@H]([C@H](OC(=O)c3ccccc3)[C@]3(O)C[C@H](OC(=O)[C@H](OC(C)=O)[C@@H](NC(=O)c4ccccc4)c4ccccc4)C(C)=C1C3(C)C)[C@]1(OC(C)=O)CO[C@@H]1C[C@@H]2O` yielded an ED50 of 3 ×10⁻⁷ M.

Each molecule was assayed on KB (assay: Cytotoxicity against human KB cells). Settings: not given.
Assay type: functional

`CC(=O)O[C@H]1C(=O)[C@]2(C)[C@H](O)C[C@H]3OC[C@@]3(OC(C)=O)[C@H]2[C@H](OC(=O)c2ccccc2)[C@]2(O)C[C@H](OC(=O)[C@H](O)[C@@H](NC(=O)c3ccccc3)c3ccccc3)C(C)=C1C2(C)C` was tested, and the ED50 was 3 ×10⁻⁵ ug/ml.

Same assay, conditions: Homo sapiens, KB; read-out: ED50 (the source's name)

Point of comparison: `CC(=O)O[C@@]12CO[C@@H]1C[C@H](O)[C@@]1(C)C(=O)[C@H](O)C3=C(C)[C@@H](O)C[C@@](O)([C@@H](OC(=O)c4ccccc4)[C@H]21)C3(C)C`, EC50 1 µg/mL (≈ 1.84 µM). Against it:
- CC(=O)O[C@H]1C[C@H]2OC[C@@]2(OC(C)=O)[C@H]2[C@H](OC(=O)c3ccccc3)[C@]3(O)C[C@H](OC(=O)[C@H](OC(C)=O)[C@@H](NC(=O)c4ccccc4)c4ccccc4)C(C)=C([C@@H](O)C(=O)[C@]12C)C3(C)C — lower, < 0.01 µg/mL
- CC(=O)O[C@H]1C(=O)[C@]2(C)C(=O)C[C@H]3OC[C@@]3(OC(C)=O)[C@H]2[C@H](OC(=O)c2ccccc2)[C@]2(O)C[C@H](OC(=O)C(=O)[C@@H](NC(=O)c3ccccc3)c3ccccc3)C(C)=C1C2(C)C — 12-fold higher, 12 µg/mL (≈ 14.1 µM)
- C=C1[C@@H](O)C[C@@H](OC(C)=O)[C@@]2(C)[C@@H](OC(C)=O)[C@H](OC(C)=O)C3=C(C)[C@@H](OC(C)=O)C[C@@](O)([C@@H](OC(C)=O)[C@H]12)C3(C)C [DECINNAMOYLTAXININE] — 28-fold higher, 28 µg/mL (≈ 47.1 µM)
- CC(=O)O[C@H]1C(=O)[C@]2(C)C(=O)C[C@H]3OC[C@@]3(OC(C)=O)[C@H]2[C@H](OC(=O)c2ccccc2)[C@]2(O)C[C@H](OC(=O)[C@H](O)[C@@H](NC(=O)c3ccccc3)c3ccccc3)C(C)=C1C2(C)C — 2-fold lower, 0.5 µg/mL (≈ 0.587 µM)
- CC(=O)OC[C@@]1(O)[C@H]2[C@H](OC(=O)c3ccccc3)[C@]3(O)C[C@H](OC(=O)[C@H](O)[C@@H](NC(=O)c4ccccc4)c4ccccc4)C(C)=C([C@@H](OC(C)=O)C(=O)[C@]2(C)[C@@H](O)C[C@@H]1O)C3(C)C — 5-fold lower, 0.2 µg/mL (≈ 0.229 µM)
- CC(=O)O[C@@]12CO[C@@H]1C[C@H](O)[C@@]1(C)C(=O)C(=O)C3=C(C)[C@@H](OC(=O)[C@H](O)[C@@H](NC(=O)c4ccccc4)c4ccccc4)C[C@@](O)([C@@H](OC(=O)c4ccccc4)[C@H]21)C3(C)C — 50-fold lower, 0.02 µg/mL (≈ 0.0247 µM)
- CC(=O)O[C@H]1C(=O)[C@@H](C)C([C@@]2(OC(C)=O)CCC(=O)OC2)[C@H](OC(=O)c2ccccc2)[C@]2(O)C[C@H](OC(=O)[C@H](O)[C@@H](NC(=O)c3ccccc3)c3ccccc3)C(C)=C1C2(C)C (stereo partly specified) — 2-fold higher, 2 µg/mL (≈ 2.34 µM)
- C=C(C)[C@@]12C[C@H](OC(=O)[C@H](OC(C)=O)[C@@H](NC(=O)c3ccccc3)c3ccccc3)C(C)=C1[C@@H](OC(C)=O)C(=O)[C@]1(C)[C@@H](OC(C)=O)C[C@H](OC(C)=O)[C@@](O)(COC(C)=O)[C@H]1[C@@H]2OC(=O)c1ccccc1 — 2.5-fold higher, 2.5 µg/mL (≈ 2.55 µM)
- CC(=O)O[C@H]1C(=O)[C@]2(C)[C@@H](OC(C)=O)C[C@H]3OC[C@@]3(OC(C)=O)[C@H]2[C@H](OC(=O)c2ccccc2)[C@]2(O)C[C@H](OC(=O)[C@H](OC(C)=O)[C@@H](NC(=O)c3ccccc3)c3ccccc3)C(C)=C1C2(C)C — 33-fold lower, 0.03 µg/mL (≈ 0.032 µM)

From ChEMBL document CHEMBL1151135, “The Chemistry of Taxol, a Clinically Useful Anticancer Agent” (1990)
